System: Tricophytes Mentagrophytes
Assay: Inhibition of growth of the onychomycosis pathogen on standard plates (Sabourand Dex., 30° C.)
Format: cell-based
Settings: ciclopirox 8%, hydroxypropylchitosan 1%; Sabourand Dex. at 30° C.; 10, 20 and 30 μl applied
Description: Inhibition of the pathogen responsible for onychomycosis in humans was tested in accordance with standard procedures on standard plates. Comparison of the antimycotic effect of ciclopirox (8%) alone and, hydroxypropychitosan (1%) alone with the combination of these two compounds (8 and 1%, respectively) with respect to the growth of Tricophytes Mentagrophytes on Sabourand Dex. at 30° C. gave the following results (amounts applied in each case 10, 20 and 30 μl): […]

SMILES: Cc1cc(C2CCCCC2)n(O)c(=O)c1 [ciclopirox]
- antimycotic effect: inhibition of growth of Tricophytes Mentagrophytes: good inhibition

From patent US7033578B2, “Antimycotic nail varnish composition” (Polichem S.A., priority 2000, dated 2006)
